Data from US12084430B2, “Tricyclic urea compounds as JAK2 V617F inhibitors” (Incyte Corporation, priority 2022, dated 2024).

What was measured:
[1] = biological target: KIT (Homo sapiens, UniProt P10721); experiment: KIT enzymatic assay; format: biochemical; settings: 1 mM ATP
Description: (§1) Example D. KIT Enzymatic Assay
(§2) The kinase assays were carried out at room temperature in assay buffer (HEPES 50 mM, pH 7.0, NaN3 0.02%, BSA 0.01%, Orthovanadate 0.1 mM, DTT 1 mM, MgCl2 10 mM) in a final volume of 10 μL. Testing compounds were prepared by serial dilution in DMSO and transferred to the plate wells by ECHO liquid handler (Labcyte) with 0.5% DMSO in the final assay. […]. Reactions were initiated by the addition of 5 μL ATP in assay buffer. The final 10 μL kinase reaction consists of 0.12 nM KIT, 1 mM ATP, 500 nM TK Substrate-biotin and SEB reagent 62.5 nM in assay buffer. […] The plates were then sealed and centrifuged at 1800 rpm for 2 minutes. After 60 minutes incubation at room temperature, the product activity was determined by measuring the fluorescence at 620 nm and 665 nm on Pherastar microplate reader (BMG Labtech). A ratio is calculated (665/620 nm) for each well. Wells with DMSO only were served as the positive controls and wells containing no ATP were used as negative controls. IC50 determination was performed by fitting the curve of percent control activity versus the log of the compound concentration using the GraphPad Prism 7.0 software.

[2] = system: KIT; experiment: KIT enzymatic assay; format: biochemical
Description: as §1, §2

[3] = system: TRKA; experiment: TRKA enzymatic assay; format: biochemical
Description: (§3) Example I. TRKA Enzymatic Assay
(§4) The kinase assays were carried out at 24° C. temperature in assay buffer (HEPES 50 mM, pH 7.0, NaN3 0.02%, BSA 0.01%, Orthovanadate 0.1 mM, DTT 1 mM, MgCl2 10 mM) in a final volume of 10 μL. Testing compounds were prepared by serial dilution in DMSO and transferred to the plate wells by ECHO liquid handler (Labcyte) with 0.5% DMSO in the final assay. […]. Reactions were initiated by the addition of 5 μL ATP in assay buffer. The final 10 μL kinase reaction consists of 0.58 nM TRKA, 1 mM ATP, 500 nM TK Substrate-biotin and SEB reagent 62.5 nM in assay buffer. […] After 60 minutes incubation at room temperature, the product activity was determined by measuring the fluorescence at 620 nm and 665 nm on Pherastar microplate reader (BMG Labtech). A ratio is calculated (665/620 nm) for each well. Wells with DMSO only were served as the positive controls and wells containing no ATP were used as negative controls. IC50 determination was performed by fitting the curve of percent control activity versus the log of the compound concentration using the Gene data.

[4] = biological target: TRKA (Homo sapiens, UniProt P04629); experiment: TRKA enzymatic assay; format: biochemical; settings: 1 mM ATP
Chain of TRKA (Homo sapiens, UniProt P04629) (P04629 33-796, species assumed): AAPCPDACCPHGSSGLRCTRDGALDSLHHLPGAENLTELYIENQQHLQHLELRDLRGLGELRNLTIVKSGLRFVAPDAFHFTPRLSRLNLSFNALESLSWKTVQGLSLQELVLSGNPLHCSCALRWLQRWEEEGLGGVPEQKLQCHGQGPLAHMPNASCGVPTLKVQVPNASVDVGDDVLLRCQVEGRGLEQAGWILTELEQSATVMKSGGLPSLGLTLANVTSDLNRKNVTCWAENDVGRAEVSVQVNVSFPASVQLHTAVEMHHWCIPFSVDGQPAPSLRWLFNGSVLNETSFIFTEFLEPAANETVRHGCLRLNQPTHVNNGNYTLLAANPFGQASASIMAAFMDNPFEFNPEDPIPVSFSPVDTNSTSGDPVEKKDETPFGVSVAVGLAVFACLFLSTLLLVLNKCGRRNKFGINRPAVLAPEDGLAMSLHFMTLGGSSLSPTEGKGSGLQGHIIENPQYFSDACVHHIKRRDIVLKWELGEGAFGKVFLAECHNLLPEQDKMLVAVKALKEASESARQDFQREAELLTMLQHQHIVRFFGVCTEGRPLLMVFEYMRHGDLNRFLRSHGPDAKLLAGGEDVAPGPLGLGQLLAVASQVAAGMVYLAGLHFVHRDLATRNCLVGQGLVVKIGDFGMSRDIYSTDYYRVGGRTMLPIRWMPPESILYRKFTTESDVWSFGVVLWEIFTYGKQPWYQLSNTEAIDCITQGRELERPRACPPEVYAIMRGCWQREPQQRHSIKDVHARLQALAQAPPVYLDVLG
Description: as §3, §4

[5] = system: STAT5 (Tyr694) phosphorylation in SET-2 cells; experiment: STAT5 (Tyr694) phosphorylation cell based assay; settings: Homo sapiens, pSTAT5, 2 hours, read-out: SET2 IC50
Description: Example E. STAT5 (Tyr694) Phosphorylation Cell Based Assay
SET-2 cells was purchased from DSMZ (Germany). RPMI1640 medium, Fetal Bovine Serum and 384-white sold flat-bottom small volume plate were purchased from Thermo Fisher Scientific (Waltham, MA). Phospho-STAT5 (Tyr694) HTRF kit was purchased from Perkin Elmer (Waltham, MA).
SET-2 cells were cultured in RPMI media with 20% FBS at 37° C. in humidified incubator supplied with 5% CO2. On the day of assay, the cells were centrifuged to remove the culture media and resuspended with prewarmed RPMI with 10% FBS. Testing compounds were prepared by serial dilution in DMSO and 50 nL/well test compounds were transferred to the 384 white low volume cell culture plate (Greiner Bio-one) by ECHO liquid handler (Labcyte). The cells were then dispensed with Multidrop (Thermo Fisher, Waltham, MA) at 10 μL/well (7×10^6 cells/mL) with 0.5% DMSO in the final assay. After the treated cells were incubated for 2 hours at 37° C./5% CO2 incubator, 4 μL/well supplemented lysis buffer (100× blocking buffer diluted 25 fold in 4× lysis buffer, Perkin Elmer) were added and incubated at room temperature for 90 min on orbital shaker at 600 rpm. Phospho-STAT5 Cryptate antibody and Phospho-STAT5 d2 antibody (1:1 vol/vol) were premixed and diluted 20 fold with in the detection buffer (Perkin Elmer). 4 μL of the premixed antibody solution were added to each well followed with 24 hours incubation at room temperature on orbital shaker at 600 rpm. The product activity was determined by measuring the fluorescence at 620 nm and 665 nm on Pherastar microplate reader (BMG Labtech). A ratio is calculated (665/620) for each well. Wells with DMSO only served as the positive controls and wells containing high concentration of control compound were used as negative controls. IC50 determination was performed by fitting the curve of percent control activity versus the log of the compound concentration using the GraphPad Prism 7.0 software.

Chain of KIT (Homo sapiens, UniProt P10721) (P10721 26-976, species assumed): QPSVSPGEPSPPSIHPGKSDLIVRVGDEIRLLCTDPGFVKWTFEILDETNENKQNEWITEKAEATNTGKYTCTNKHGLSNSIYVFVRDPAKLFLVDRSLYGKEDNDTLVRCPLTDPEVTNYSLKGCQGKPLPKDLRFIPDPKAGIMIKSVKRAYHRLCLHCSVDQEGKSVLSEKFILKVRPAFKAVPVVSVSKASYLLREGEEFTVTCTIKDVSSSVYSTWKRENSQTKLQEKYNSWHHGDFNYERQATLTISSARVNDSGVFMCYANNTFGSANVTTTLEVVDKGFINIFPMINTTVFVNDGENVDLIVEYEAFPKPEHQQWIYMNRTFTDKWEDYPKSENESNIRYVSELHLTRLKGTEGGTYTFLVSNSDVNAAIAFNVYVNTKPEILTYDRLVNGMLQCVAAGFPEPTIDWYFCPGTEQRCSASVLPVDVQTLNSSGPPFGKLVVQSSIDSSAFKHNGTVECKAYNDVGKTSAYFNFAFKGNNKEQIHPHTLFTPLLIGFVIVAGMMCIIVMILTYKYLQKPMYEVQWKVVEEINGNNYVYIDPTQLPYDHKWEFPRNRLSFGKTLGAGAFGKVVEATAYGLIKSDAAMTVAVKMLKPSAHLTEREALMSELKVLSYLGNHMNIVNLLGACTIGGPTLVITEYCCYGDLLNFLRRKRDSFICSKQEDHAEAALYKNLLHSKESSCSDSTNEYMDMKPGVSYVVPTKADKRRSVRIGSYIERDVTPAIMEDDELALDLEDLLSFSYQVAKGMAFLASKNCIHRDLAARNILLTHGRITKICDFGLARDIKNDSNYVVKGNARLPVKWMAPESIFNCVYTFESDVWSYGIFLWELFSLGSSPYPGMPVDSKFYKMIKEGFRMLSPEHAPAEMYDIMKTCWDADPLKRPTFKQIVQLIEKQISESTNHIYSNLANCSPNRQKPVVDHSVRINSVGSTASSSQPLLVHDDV

Structure (SMILES) | IC50 [1] | Selectivity KIT/JH2 V617F [2] | Selectivity TRKA/JH2 V617F [3] | IC50 [4] | IC50 [5]
[2H]C([2H])([2H])n1cc(-c2[nH]c3ncc4c(c3c2-c2ccc(C(C)(C)O)cc2)n([C@@H]2CC[C@@H](NC(=O)OC)C2)c(=O)n4C([2H])([2H])[2H])c(F)n1 [Example 10, Methyl ((1R,3R)-3-(7-(3-fluoro-1-(methyl-d3)-1H-pyrazol-4-yl)-8-(4-(2-hydroxypropan-2-yl)phenyl)-3-(methyl-d3)-2-oxo-3,6-dihydroimidazo[4,5-d]pyrrolo[2,3-b]pyridin-1(2H)-yl)cyclopentyl)carbamate] | 0.25 to 1.25 µM | *** (selectivity of >1500-fold to ≤1750-fold) | ****** (selectivity of >12500-fold) | > 2.5 µM | ≤ 0.3 µM
[2H]C([2H])([2H])n1cc(-c2[nH]c3ncc4c(c3c2-c2ccc3c(c2)COC3(C)C)n([C@@H]2CC[C@@H](NC(=O)OC)C2)c(=O)n4C)c(F)n1 [Example 11, Methyl ((1R,3R)-3-(8-(1,1-dimethyl-1,3-dihydroisobenzofuran-5-yl)-7-(3-fluoro-1-(methyl-d3)-1H-pyrazol-4-yl)-3-methyl-2-oxo-3,6-dihydroimidazo[4,5-d]pyrrolo[2,3-b]pyridin-1(2H)-yl)cyclopentyl)carbamate] | > 2.5 µM | ****** (selectivity of >12500-fold) | ****** (selectivity of >12500-fold) | > 2.5 µM | ≤ 0.3 µM
[2H]C([2H])([2H])n1c(=O)n([C@@H]2CC[C@@H](NC(=O)OC)C2)c2c3c(-c4ccc5c(c4)COC5(C)C)c(-c4cn(CC(F)F)nc4F)[nH]c3ncc21 [Example 12, Methyl ((1R,3R)-3-(7-(1-(2,2-difluoroethyl)-3-fluoro-1H-pyrazol-4-yl)-8-(1,1-dimethyl-1,3-dihydroisobenzofuran-5-yl)-3-(methyl-d3)-2-oxo-3,6-dihydroimidazo[4,5-d]pyrrolo[2,3-b]pyridin-1(2H)-yl)cyclopentyl)carbamate] | > 2.5 µM | ****** (selectivity of >12500-fold) | ****** (selectivity of >12500-fold) | > 2.5 µM | ≤ 0.3 µM
[2H]C([2H])([2H])n1cc(-c2[nH]c3ncc4c(c3c2-c2ccc3c(cnn3C(C)C)c2)n([C@@H]2CC[C@@H](NC(=O)OC)C2)c(=O)n4C([2H])([2H])[2H])c(F)n1 [Example 13, Methyl ((1R,3R)-3-(7-(3-fluoro-1-(methyl-d3)-1H-pyrazol-4-yl)-8-(1-isopropyl-1H-indazol-5-yl)-3-(methyl-d3)-2-oxo-3,6-dihydroimidazo[4,5-d]pyrrolo[2,3-b]pyridin-1(2H)-yl)cyclopentyl)carbamate] | 0.25 to 1.25 µM | **** (selectivity of >1750-fold to ≤5000-fold) | ****** (selectivity of >12500-fold) | > 2.5 µM | ≤ 0.3 µM
[2H]C([2H])([2H])n1cc(-c2[nH]c3ncc4c(c3c2-c2ccc3c(cnn3CC(F)F)c2)n([C@@H]2CC[C@@H](NC(=O)OC)C2)c(=O)n4C([2H])([2H])[2H])c(F)n1 [Example 14, Methyl ((1R,3R)-3-(8-(1-(2,2-difluoroethyl)-1H-indazol-5-yl)-7-(3-fluoro-1-(methyl-d3)-1H-pyrazol-4-yl)-3-(methyl-d3)-2-oxo-3,6-dihydroimidazo[4,5-d]pyrrolo[2,3-b]pyridin-1(2H)-yl)cyclopentyl)carbamate] | 0.25 to 1.25 µM | ***** (selectivity of >5000-fold to ≤12500-fold) | ****** (selectivity of >12500-fold) | > 2.5 µM | ≤ 0.3 µM
[2H]C([2H])([2H])n1ncc2cc(-c3c(-c4cn(C([2H])([2H])C([2H])([2H])[2H])nc4F)[nH]c4ncc5c(c34)n([C@@H]3CC[C@@H](NC(=O)OC)C3)c(=O)n5C([2H])([2H])[2H])ccc21 [Example 15, Methyl ((1R,3R)-3-(7-(1-(ethyl-d5)-3-fluoro-1H-pyrazol-4-yl)-3-(methyl-d3)-8-(1-(methyl-d3)-1H-indazol-5-yl)-2-oxo-3,6-dihydroimidazo[4,5-d]pyrrolo[2,3-b]pyridin-1(2H)-yl)cyclopentyl)carbamate] | 0.25 to 1.25 µM | **** (selectivity of >1750-fold to ≤5000-fold) | ****** (selectivity of >12500-fold) | 1.25 to 2.5 µM | ≤ 0.3 µM
[2H]C([2H])([2H])n1cc(-c2[nH]c3ncc4c(c3c2-c2ccc3c(cnn3C(C)C)c2)n([C@@H]2CC[C@@H](NC(=O)OC)C2)c(=O)n4C)c(F)n1 [Example 16, Methyl ((1R,3R)-3-(7-(3-fluoro-1-(methyl-d3)-1H-pyrazol-4-yl)-8-(1-isopropyl-1H-indazol-5-yl)-3-methyl-2-oxo-3,6-dihydroimidazo[4,5-d]pyrrolo[2,3-b]pyridin-1(2H)-yl)cyclopentyl)carbamate] | 1.25 to 2.5 µM | ****** (selectivity of >12500-fold) | ****** (selectivity of >12500-fold) | > 2.5 µM | ≤ 0.3 µM
[2H]C([2H])([2H])n1cc(-c2[nH]c3ncc4c(c3c2-c2cc(F)c3c(cnn3C([2H])([2H])[2H])c2)n([C@@H]2CC[C@@H](NC(=O)OC)C2)c(=O)n4C([2H])([2H])[2H])c(F)n1 [Example 17, Methyl ((1R,3R)-3-(8-(7-fluoro-1-(methyl-d3)-1H-indazol-5-yl)-7-(3-fluoro-1-(methyl-d3)-1H-pyrazol-4-yl)-3-(methyl-d3)-2-oxo-3,6-dihydroimidazo[4,5-d]pyrrolo[2,3-b]pyridin-1(2H)-yl)cyclopentyl)carbamate] | 1.25 to 2.5 µM | ****** (selectivity of >12500-fold) | ****** (selectivity of >12500-fold) | > 2.5 µM | ≤ 0.3 µM
[2H]C([2H])([2H])n1cc(-c2[nH]c3ncc4c(c3c2-c2ccc3c(cnn3CC(F)F)c2)n([C@@H]2CC[C@@H](NC(=O)OC)C2)c(=O)n4C)c(F)n1 [Example 18, Methyl ((1R,3R)-3-(8-(1-(2,2-difluoroethyl)-1H-indazol-5-yl)-7-(3-fluoro-1-(methyl-d3)-1H-pyrazol-4-yl)-3-methyl-2-oxo-3,6-dihydroimidazo[4,5-d]pyrrolo[2,3-b]pyridin-1(2H)-yl)cyclopentyl)carbamate] | 1.25 to 2.5 µM | ****** (selectivity of >12500-fold) | ****** (selectivity of >12500-fold) | > 2.5 µM | ≤ 0.3 µM
